Literature values as cited in US11364187B2, “Compositions and methods for preventing and reversing aspects of aging” (CENTERS FOR AGE CONTROL, INC., priority 2017, dated 2022).

Assays:
[1] = 60 year old human equivalent mice, one week of injections
[2] = human body
SIRT1 enzyme = target: T1, SIRT1 enzyme (Homo sapiens, UniProt Q96EB6); settings: in vitro
T1 sequence (Q96EB6 1-747): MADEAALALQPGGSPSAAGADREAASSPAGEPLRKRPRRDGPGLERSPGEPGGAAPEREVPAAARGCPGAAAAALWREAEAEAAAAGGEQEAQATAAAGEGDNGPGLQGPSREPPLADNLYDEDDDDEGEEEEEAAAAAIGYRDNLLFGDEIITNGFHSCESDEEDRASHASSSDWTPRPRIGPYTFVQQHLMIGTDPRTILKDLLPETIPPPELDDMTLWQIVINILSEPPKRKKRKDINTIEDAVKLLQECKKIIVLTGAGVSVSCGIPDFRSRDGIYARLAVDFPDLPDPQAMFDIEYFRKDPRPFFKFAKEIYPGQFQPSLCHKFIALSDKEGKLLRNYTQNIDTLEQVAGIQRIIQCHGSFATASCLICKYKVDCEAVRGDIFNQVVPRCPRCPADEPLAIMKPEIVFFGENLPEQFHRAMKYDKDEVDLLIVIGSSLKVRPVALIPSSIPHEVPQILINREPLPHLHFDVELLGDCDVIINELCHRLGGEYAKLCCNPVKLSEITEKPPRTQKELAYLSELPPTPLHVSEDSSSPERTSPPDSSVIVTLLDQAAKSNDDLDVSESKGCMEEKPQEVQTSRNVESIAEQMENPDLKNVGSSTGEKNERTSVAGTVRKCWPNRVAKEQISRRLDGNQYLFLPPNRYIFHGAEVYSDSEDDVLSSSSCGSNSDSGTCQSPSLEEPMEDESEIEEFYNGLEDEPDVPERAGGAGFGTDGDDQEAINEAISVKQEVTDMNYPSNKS

[3] = topically applied

SMILES: NC(=O)c1ccc[n+]([C@@H]2O[C@H](COP(=O)([O-])O)[C@@H](O)[C@H]2O)c1 [NMN, nicotinamide mono nucleotide]
- muscle tissue age appearance [1]: muscle tissue resembling 20 years old

SMILES: COc1cc(/C=C/c2ccc(O)cc2)cc(OC)c1 [Pterostilbene]
- absorption [2]: about 80%
- absorption relative to resveratrol [2]: about four times more effectively

SMILES: NC(=O)c1cccnc1 [nicotinamide]
- effect on SIRT1 enzyme (SIRT1 enzyme): direct inhibitor of SIRT1 enzyme in vitro
- wrinkles and dark spots on skin [3]: reduces the wrinkles and dark spots on skin
